Assay results reported in article PMC2652713, “Molecular Blocking of CD23 Supports Its Role in the Pathogenesis of Arthritis” (PLoS ONE, 2009).
“Also recorded” adds a separate entry of the source.

Key:
[1] = system: CD23; assay: CD23 western blot on CD23+ B-cell line extract; format: binding, human; settings: CD23+ B cell line extract (50 µg protein), blot pre-incubated with p30A 10 µg/ml (methods: 10, 20 and 40 µg/ml, 2 h)
Protocol: (§1) Figure 1 Specific blockade of CD23 reactivity by p30A. Flow cytometry analysis showing the inhibition of (A) anti-CD23-FITC (20 µg/ml) or (B) IgE (10 µg/ml)/anti-IgE-FITC (1 µg/ml) binding to CD23^+ human PBL-derived macrophages (red lines) or following their pre-incubation with p30A peptides (10 µg/ml) (blue lines). (C) CD23 western blot was performed on total protein extract from à CD23^+ B-cell line. The detection with CD23-McAb followed the pre-incubation of the blot with or without p30A (10 µg/ml). Similar protein quantity (50 µg) was used for each western blot condition.
(§2) Total cellular proteins were isolated from CD23^+, ADAM B-cell line in cell lysis buffer (10 mM Tris pH 8.0, 150 mM NaCl, 5 mM EDTA, 1% Triton X-100, 0.05% SDS, 10 mM Sodium Fluoride, 1 mM Sodium Orthovanadate, 5 µM Molibdic Acid) and a mixture of protease inhibitors (all from Sigma Aldrich, Saint Quentin Fallavier, France). Protein concentration was determined using the Bradford assay (Bio Rad, Hemel Hempstead, UK). Protein samples (50 µg total protein) were subjected to SDS-PAGE using a 12% resolving gel. […] Immunoreactive bands (CD23 and Bcl2) were detected using the FluorChem 8800 (Alpha Innotech, San Leandro, USA) and semi-quantified by densitometry using AlphaEase FC (Alpha Innotech).

[2] = system: soluble and surface CD23; assay: Interaction of p30A with soluble and surface CD23 (inferred); format: binding, human
Protocol: as §1
As control (pCtl), we have used synthetic heptapeptide with unrelated sequence (SFNYNYA).
as §2

[3] = system: iNOS mRNA in human CD23+ monocyte-derived macrophages; assay: iNOS mRNA expression (RT-PCR) in CD23-activated human macrophages; format: cell-based; settings: CD23-McAb 20 µg/ml, 1 h pre-incubation with 10 µg/ml peptide, versus HPRT mRNA
Protocol: Figure 2 Inhibition of CD23-mediated activation of iNOS pathway in human macrophages by p30A. Human CD23^+ monocyte-derived macrophages were incubated with cross-linking CD23-McAb (20 µg/ml) alone or following 1 h pre-incubation with 10 µg/ml of various peptides. […] Expression of iNOS mRNA was compared to HPRT mRNA levels. (B) Inhibition of NO generation from human activated macrophages by synthetic peptides. Cell supernatants were collected 72 h following cell cultures and levels of nitrites were determined. […] Results are expressed as mean of 3 distinct donor cell preparations (SEM<20%). (C) Inducible NOS-mediated NO generation in human macrophages is decreased following pre-incubation with p30A or L-NIL prior to CD23-mediated activation. Results are expressed as mean±s.d. of 7 distinct donor cell preparations.
Monocytes or macrophages were activated through CD23 pathway: while monocytes/macrophages from RA patients express CD23, monocytes from healthy donors must be pre-activated to express surface CD23 as described. […] Cells supernatants were then analyzed for their nitric oxide content (see below) and for the presence of cytokines: levels of TNF-α and IL-6 were determined in duplicates for each sample by a specific ELISA (R&D, Paris, France) while levels of IL-1β, IL-8 and IL-10 was determined using FlowCytomix Human Th1/Th2 Kit as recommended (Bender Medsystems, Vienna, Austria). […]

[4] = system: human CD23+ macrophages; assay: Cell mortality and apoptosis with p30A versus medium alone; format: cell-based
[5] = system: healthy human PBL-derived macrophages; assay: Inflammatory mediator release from healthy human PBL-derived macrophages; format: cell-based
Protocol: Figure 4 Inhibition of inflammatory mediator generation from healthy human PBL-derived macrophages by p30A. Decreased levels of TNF-α (A), IL-6 (B), IL-1β, IL-8 and IL-10 (C) were detected in CD23-activated cells after incubation with p30A. […] Values are mean±s.d. of cells from 5 (IL-6, TNF-α) or 2 (IL-1β, IL-8, IL-10) different donors.
Monocytes or macrophages were activated through CD23 pathway: while monocytes/macrophages from RA patients express CD23, monocytes from healthy donors must be pre-activated to express surface CD23 as described. This pre-activation was obtained by incubation of healthy monocytes with recombinant human IL-4 (20 ng/ml) during 48 h at 37°C; After washing, all cell populations were tested by flow cytometry for their surface CD23 expression (>80% CD23^+) and then incubated in the presence of cross-linking CD23-MAb (clones 135 or DM2, IgG1k, 20 µg/ml) during 48–72 h, or IgE and anti-IgE as described, [17]. When indicated, peptides were added to the cells 2 h prior to their activation. Cells supernatants were then analyzed for their nitric oxide content (see below) and for the presence of cytokines: levels of TNF-α and IL-6 were determined in duplicates for each sample by a specific ELISA (R&D, Paris, France) while levels of IL-1β, IL-8 and IL-10 was determined using FlowCytomix Human Th1/Th2 Kit as recommended (Bender Medsystems, Vienna, Austria).

[6] = FlowCytomix, mean±s.d., 2 donors

FHENWPS [p30A]
block of detection of CD23 protein by CD23-McAb [1]: block
binding to human CD23 [2]: specifically bound human and rat CD23
affinity of interaction with soluble and surface CD23 relative to McAb or IgE-anti-IgE ([2]; authors' inference from Figure 1A-C, Kd not given): interacts with both soluble and surface CD23 forms with a higher affinity than specific McAb or IgE-anti-IgE immune complexes
iNOS-encoding mRNA level [3]: reduced the levels of inducible nitric oxide synthase (iNOS)-encoding mRNA; also recorded: decreased in cells pre-incubated with p30A
cell mortality and apoptosis ([4]; in the presence of p30A compared to cells in medium alone, no significant variations): < 5%
cell toxicity ([4]; monocytes/macrophages): without cell toxicity
IL-6 level ([5]; ELISA, mean±s.d., 5 donors): Decreased
TNF-α level ([5]; ELISA, mean±s.d., 5 donors): Decreased
IL-1β level [5, 6]: Decreased
IL-8 level [5, 6]: Decreased
IL-10 level [5, 6]: Decreased
inhibition of CD23-mediated inflammatory mediators at protein level ([5]; TNF-α, IL-6, IL-1β, IL-8 and IL-10 in supernatants): significantly inhibited all CD23-mediated activation of inflammatory mediators at protein levels
